Reference: US11311522B1 (Cavion, Inc., priority 2018, dated 2022)

Assays:
[1] = PN003: safety and tolerability; format: in vivo; settings: for At least 1 adverse event / Disorientation / Dry mouth / Gastrointestinal Disorders / Hallucinations visual / Headache / Insomnia / Nausea / Nervous System Disorders / Psychiatric Disorders / Somnolence / Vivid dreams: Study PN003/Part I and Part II
Source text: Additional adverse events, including mood swings, feeling frightened, laughing intermittently, difficulty moving hands, feeling weak, enhanced taste, loss of fine sensation in fingertips, some loss of sensation at skin level (all over body), and out of body feeling, were reported as the day progressed. All adverse events were mild or moderate in severity. Most events began minutes to hours after dosing, and all had resolved by 3 days after dosing. The adverse events that the subject experienced were described as “mood swings” and led to discontinuation of dosing. […] In addition, they reported feeling angry towards another subject, feeling dizzy/drunk, intense daydreams, shaking/trembling, and sweating. All adverse events were mild in severity, and all were considered possibly related to the study drug. The last dose of CX-8998 was not administered. All adverse events resolved after discontinuation of the study drug. […] The subject experienced nervous system-related events of gradually increasing severity, including lightheadedness, euphoria, tiredness, headache, hard to follow thoughts, vulnerable thoughts and emotions, feeling flat, and weak in the muscles. All adverse events were mild or moderate in severity, and all were considered possibly related to the study drug. The last dose of CX-8998 was not administered. All adverse events resolved after discontinuation of the study drug. […] Oxygen saturation and serum glucose levels were within normal limits, but the subject's blood pressure was low at the time of the event (76/43 mmHg, with a pulse rate of 59 bpm). […] The event was judged by the investigator as moderate in severity and as probably related to the study drug. The subject was discontinued from the study because of ongoing nausea and feelings of weakness and lethargy. […] The subject was not on telemetry at the time. The investigator considered the event to be a vasovagal reaction (moderate in severity) and assessed the event as unrelated to the study drug. The subject continued in the study and completed the planned 7 days of treatment. […] A washout period of at least 2 weeks separated the treatment periods. […] The PSG recordings were initiated at each subject's habitual bedtime and continued for 8 hours. In addition to PSG recordings, subjects were evaluated on the next day with subjective measures of sleep quality (Leeds Sleep Evaluation Questionnaire) and sleepiness (Karolinska Sleepiness Scale) and with cognitive and motor tasks to assess next-morning residual effects. An interim analysis of the primary endpoint (slow wave activity in the first one-third of sleep) was performed after 24 subjects had completed Part I of the study (Section 5.3.3.1.2). The study was adaptively designed to allow a re-estimation of the sample size after the interim analysis. Based on the results of the interim analysis, the study could be stopped if the efficacy criterion (increase in slow wave activity, p<0.05) or futility criterion (p>0.25) was achieved. If neither criterion was met, a re-estimation of the sample size was specified, with the ability to enroll up to 24 additional subjects. […] As in Part I of the study, PSG recordings were initiated at each subject's habitual bedtime and continued for 8 hours, and subjects were evaluated on the next day with subjective measures of sleep quality (Leeds Sleep Evaluation Questionnaire) and sleepiness (Karolinska Sleepiness Scale) and with cognitive and motor tasks to assess next-morning residual effects.
All reported adverse experiences were temporary and generally of mild intensity.
The visual disturbances tended to cease with eye opening and to recur with eye closure and were generally not disturbing to the subjects. […] No serious adverse events were reported, and none of the subjects discontinued treatment because of an adverse event. […] 5.3.3.1.3.2 Other Safety Assessments No clinically significant trends in safety laboratory parameters or vital signs were observed. […]

[2] = MR2 capsules fed versus fasted PK; format: in vivo; settings: human, plasma, oral, 8 mg, single dose (1×8 mg) of MR2 CX-8998
Source text: Subjects will be screened for study eligibility within 28 days before administration of the first dose of study drug. Subjects who meet the study eligibility criteria will be admitted to the clinical research unit in the afternoon of the day before administration of the first dose of study drug (Period 1/Day −1).

[3] = test system: cardiovascular function; experiment: Cardiovascular function in anesthetized vagotomized dogs, IV; format: in vivo, dog; settings: 10 mg/kg IV
[4] = 4-week oral toxicology in rats (with FOB); settings: for NOAEL at 4 weeks / AUC / Cmax: rat; for NOAEL at 4 weeks: in vivo; for AUC / Cmax: plasma, Day 28, mean (SD)
[5] = doses up to 20 μM
[6] = test system: patients with schizophrenia; experiment: PN004: safety; format: in vivo, human
Source text: The primary efficacy endpoint was the mean change from baseline in the Positive and Negative Syndrome Scale (PANSS) total score at Week 4; secondary efficacy endpoints included responder rates on the PANSS total score at Week 4 and the change from baseline in the Clinical Global Impressions—Severity of Illness Scale at Week 4. Safety was monitored by adverse events, laboratory evaluations, ECGs, Holter monitoring, vital signs, the Simpson-Angus Scale, the Barnes Akathisia Rating Scale, the Abnormal Involuntary Movement Scale, and the Columbia Suicide-Severity Rating scale (C-SSRS).

[7] = single dose 4 mg, N = 12 exposures
[8] = single dose 8 mg, N = 9 exposures
[9] = single dose 12 mg, N = 54 exposures
[10] = Sprague-Dawley rat, 30, 300, or 2000 mg/kg/day oral gavage for 4 weeks
[11] = Study PN004, subjects with schizophrenia, BID Days 1 to 28, CX-8998 N = 86, Olanzapine N = 47

## CC(C)c1ccc(CC(=O)N[C@H](C)c2ccc(OCC(F)(F)F)cn2)cc1 [CX-8998]
[1]; 8 mg
  Exposures with increase from baseline of ≥30 and ≤60 msec in QTc: 11.1%
[1]; 12 mg
  Exposures with increase from baseline of ≥30 and ≤60 msec in QTc: 5.6%
[1]; Any Dose, N = 75 exposures
  At least 1 adverse event: 33 (44.0) n (%)
  Disorientation: 3 (4.0) n (%)
  Dry mouth: 2 (2.7) n (%)
  Gastrointestinal Disorders: 7 (9.3) n (%)
  Hallucinations visual: 4 (5.3) n (%)
  Headache: 9 (12.0) n (%)
  Insomnia: 3 (4.0) n (%)
  Nausea: 2 (2.7) n (%)
  Nervous System Disorders: 15 (20.0) n (%)
  Psychiatric Disorders: 17 (22.7) n (%)
  Somnolence: 6 (8.0) n (%)
  Vivid dreams: 4 (5.3) n (%)
[1]; [7]
  At least 1 adverse event: 4 (33.3) n (%)
  Disorientation: 0 n (%)
  Dry mouth: 0 n (%)
  Gastrointestinal Disorders: 1 (8.3) n (%)
  Hallucinations visual: 2 (16.7) n (%)
  Headache: 1 (8.3) n (%)
  Insomnia: 1 (8.3) n (%)
  Nausea: 1(8.3) n (%)
  Nervous System Disorders: 2 (16.7) n (%)
  Psychiatric Disorders: 3 (25.0) n (%)
  Somnolence: 1 (8.3) n (%)
  Vivid dreams: 0 n (%)
[1]; [8]
  At least 1 adverse event: 2 (22.2) n (%)
  Disorientation: 0 n (%)
  Dry mouth: 0 n (%)
  Gastrointestinal Disorders: 1 (11.1) n (%)
  Hallucinations visual: 0 n (%)
  Headache: 0 n (%)
  Insomnia: 0 n (%)
  Nausea: 0 n (%)
  Nervous System Disorders: 1 (11.1) n (%)
  Psychiatric Disorders: 0 n (%)
  Somnolence: 1 (11.1) n (%)
  Vivid dreams: 0 n (%)
[1]; [9]
  At least 1 adverse event: 27 (50.0) n (%)
  Disorientation: 3 (5.6) n (%)
  Dry mouth: 2 (3.7) n (%)
  Gastrointestinal Disorders: 5 (9.3) n (%)
  Hallucinations visual: 2 (3.7) n (%)
  Headache: 8 (14.8) n (%)
  Insomnia: 2 (3.7) n (%)
  Nausea: 1 (1.9) n (%)
  Nervous System Disorders: 12 (22.2) n (%)
  Psychiatric Disorders: 14 (25.9) n (%)
  Somnolence: 4 (7.4) n (%)
  Vivid dreams: 4 (7.4) n (%)
[2]
  AUC: 7.57 µM·h
[3]
  Decrease in mean arterial pressure: 15%
  Increase in PR interval: 7%
[4]; [10]
  FOB findings: non-adverse FOB changes were also
  female reproductive organ findings (extended diestrus): Reversible changes
[4]; both sexes
  NOEL: < 30 mg/kg/day
[4]; both, Sprague-Dawley, po
  NOAEL at 4 weeks: 30 mg/kg
[4]; female rats, Day 1
  LOEL for the FOB: 30 mg/kg/day
[4]; female, oral
  NOAEL at 4 weeks: < 30 mg/kg/day
[4]; female, po, 300 mg/kg/day, AUC24, Female rats, 300 mg/kg/day oral gavage
  AUC: 438 µM·h
[4]; female, po, 300 mg/kg/day, Female rats, 300 mg/kg/day oral gavage
  Cmax: 28.3 µM
[4]; female, po, 2000 mg/kg/day, Female rats, 2000 mg/kg/day oral gavage
  Cmax: 33.5 µM
[4]; male, oral
  NOAEL at 4 weeks: 30 mg/kg/day
[4]; male, po, 30 mg/kg/day, AUC24, Male rats, 30 mg/kg/day oral gavage
  AUC: 35.1 µM·h
[4]; male, po, 300 mg/kg/day, Male rats, 300 mg/kg/day oral gavage
  Cmax: 26.1 µM
[4]; male, po, 2000 mg/kg/day, AUC24, Male rats, 2000 mg/kg/day oral gavage
  AUC: 467 µM·h
[4]; male, po, 2000 mg/kg/day, Male rats, 2000 mg/kg/day oral gavage
  Cmax: 28.9 µM
[5]
  Alkaline elution assay result: negative
[6]; [11]
  Anxiety: 2 (2.3)
  At least 1 adverse event: 41 (47.7)
  Chronic pharyngitis: 2 (2.3)
  Dizziness: 2 (2.3)
  Headache: 2 (2.3)
  Insomnia: 13 (15.1)
  Rhinopharyngitis: 2 (2.3)
  Schizophrenia: 3 (3.5)
  Sinus tachycardia: 2 (2.3)
  Somnolence: 2 (2.3)
[6]; in vivo
  Subjects who discontinued treatment because of adverse events: 10.5%
  Subjects with dizziness and vertigo: 4.7%
